# Reference: patent US10016515B2, “DMA, a bis-benzimidazole, confers radioprotection to the intestine via Akt/NFκB dual pathway activation” (Jawaharlal Nehru University, priority 2016, dated 2018)
# Like-named read-outs stand apart in the source and are kept apart here.
# Assays:
# [1] = Tissue bio-distribution and tissue pharmacokinetics of DMA; type: in vivo, mouse; conditions: for half-life / Tmax / concentration at 1 h / concentration at 2 h / concentration at 4 h / concentration at 6 h / concentration at 16 h / concentration at 24 h / Cmax: Balb/c, mouse; for half-life / Tmax / Cmax: 100 mg/kg oral dose
# Method: Tissue samples were collected from the same mice from which blood samples were collected in both doses of DMA. Lung, liver, kidney, intestine, heart, spleen, brain were dissected and rinsed with phosphate buffer saline (PBS) and dried on blotting paper. 100 mg of tissue sample was homogenized for 20 s in chilled acetronitrile and water and further 700 μl chilled acetronitrile was added. The sample was centrifuged at 14000 rpm for 10 min and clear supernatant was collected for analysis on HPLC-MS/MS system.
# A standard DMA calibration from 1-1000 ng/ml with internal standard (20 ng/ml) was quantified. Sample analysis was performed on positive ionization mode LC-MS/MS with multiple reactions monitoring (MRM, m/z Q1/Q3) of DMA (m/z 235.1/412.0, retention time (RT) 5.3 min) and internal standard (m/z 227.1/396.0, RT 6.5 min) (Agilent 6410 series). A gradient method was employed to analyze the plasma samples using mobile phase A (0.1% formic acid in water) and mobile phase B (methanol). The B % was set as 30 (0 min), 90 (10-14 min), 30 (14-24 min) with flow rate of 0.3 ml/min. An injection volume of 10 μl was used for analysis.
# Peak tissue concentration (Cmax) of DMA and time to reach the Cmax (tmax) were read directly from the raw data by visual examination of mean tissue concentration-time profile. The tissue concentration-time data following oral dose were subjected to one-, two- and three-compartmental models using WinNonlin program (version 6.3; Certara Inc, Missouri, USA) to calculate the pharmacokinetic parameters. The pharmacokinetic models were compared according to maximal correlation between observed and predicted concentration, minimal sum of squared residuals, Akaike Information Criterion (AIC) and Schwarz Bayesian Criterion (SBC). However, the tissue concentration-time data following intravenous administration were subjected to non-compartmental approach.
# Balb/c intestinal cells = experiment: Cell proliferation by BrdU labeling, flow cytometry; type: in vivo, mouse
# Method: S phase cells were labeled in vivo by administering BrdU (i.p., 100 mg/kg) to each mouse 2 h before euthanasia. Mice were euthanized 3 days after irradiation and small intestine was rapidly dissected, chopped into homogeneous solution by straining with 70μ strainer and fixed in 70% ethanol. Cells stained with 0.5 mL of RNase (2 mg/mL) and 0.5 mL of propidium iodide (0.1% in 0.6% Triton X-100 in PBS) for 30 min in dark. Samples were then analysed on a FACS Calibur flow-cytometer (Becton Dickinson).
# [2] = kidney, Oral 100 mg/kg, read-out: Tissue DMA concentration, Kidney
# [3] = liver, iv, i.v. 50 mg/kg, read-out: Tissue DMA concentration, Liver
# [4] = liver, Oral 100 mg/kg, read-out: Tissue DMA concentration, Liver
# [5] = lung, iv, i.v. 50 mg/kg, read-out: Tissue DMA concentration, Lung
# [6] = lung, Oral 100 mg/kg, read-out: Tissue DMA concentration, Lung
# [7] = spleen, iv, i.v. 50 mg/kg, read-out: Tissue DMA concentration, Spleen
# [8] = spleen, Oral 100 mg/kg, read-out: Tissue DMA concentration, Spleen
smiles,measurement,setting,value
"COc1ccc(-c2nc3cc(-c4nc5cc(N6CCN(C)CC6)ccc5[nH]4)ccc3[nH]2)cc1OC [DMA, 5-(4-methylpiperazin-1-yl)-2-[2′-(3,4-dimethoxyphenyl)-5′-benzimidazolyl]benzimidazole]",half-life,"[1]; kidney, read-out: Half life, Kidney (converted)",150 min
same,Tmax,"[1]; kidney, read-out: Tmax, Kidney",4 h
same,concentration at 1 h,"[1]; kidney, Oral 100 mg/kg, 1 h, read-out: Tissue DMA concentration, Kidney",342 ng/g
same,concentration at 2 h,[1]; [2],1020 ng/g
same,concentration at 4 h,"[1]; kidney, Oral 100 mg/kg, 4 h, read-out: Tissue DMA concentration, Kidney",1530 ng/g
same,concentration at 6 h,"[1]; kidney, Oral 100 mg/kg, 6 h, read-out: Tissue DMA concentration, Kidney",643 ng/g
same,concentration at 16 h,[1]; [2],193 ng/g
same,concentration at 1 h,"[1]; liver, intravenous, 50 mg/kg i.v., read-out: Concentration achieved in liver",41600 ng/g
same,concentration at 1 h,"[1]; liver, iv, i.v. 50 mg/kg, 1 h, read-out: Tissue DMA concentration, Liver",41600 ng/g
same,concentration at 2 h,[1]; [3],2000 ng/g
same,concentration at 4 h,"[1]; liver, iv, i.v. 50 mg/kg, 4 h, read-out: Tissue DMA concentration, Liver",30100 ng/g
same,concentration at 6 h,"[1]; liver, iv, i.v. 50 mg/kg, 6 h, read-out: Tissue DMA concentration, Liver",40100 ng/g
same,concentration at 16 h,[1]; [3],22200 ng/g
same,half-life,"[1]; liver, read-out: Half life, Liver (converted)",240 min
same,Tmax,"[1]; liver, read-out: Tmax, Liver",4 h
same,concentration at 1 h,"[1]; liver, Oral 100 mg/kg, 1 h, read-out: Tissue DMA concentration, Liver",161 ng/g
same,concentration at 2 h,[1]; [4],415 ng/g
same,concentration at 4 h,"[1]; liver, Oral 100 mg/kg, 4 h, read-out: Tissue DMA concentration, Liver",2230 ng/g
same,concentration at 6 h,"[1]; liver, Oral 100 mg/kg, 6 h, read-out: Tissue DMA concentration, Liver",735 ng/g
same,concentration at 16 h,[1]; [4],691 ng/g
same,concentration at 24 h,[1]; [4],192 ng/g
same,concentration at 1 h,"[1]; lung, intravenous, 50 mg/kg i.v., read-out: Concentration achieved in lung",109000 ng/g
same,concentration at 1 h,"[1]; lung, iv, i.v. 50 mg/kg, 1 h, read-out: Tissue DMA concentration, Lung",109000 ng/g
same,concentration at 2 h,[1]; [5],2340 ng/g
same,concentration at 4 h,"[1]; lung, iv, i.v. 50 mg/kg, 4 h, read-out: Tissue DMA concentration, Lung",1770 ng/g
same,concentration at 6 h,"[1]; lung, iv, i.v. 50 mg/kg, 6 h, read-out: Tissue DMA concentration, Lung",1340 ng/g
same,concentration at 16 h,[1]; [5],993 ng/g
same,concentration at 24 h,[1]; [5],730 ng/g
same,concentration at 4 h,"[1]; lung, 100 mg/kg oral, at 4 h, read-out: Concentration reached in lung",1000 ng/g
same,concentration at 1 h,"[1]; lung, Oral 100 mg/kg, 1 h, read-out: Tissue DMA concentration, Lung",211 ng/g
same,concentration at 2 h,[1]; [6],436 ng/g
same,concentration at 4 h,"[1]; lung, Oral 100 mg/kg, 4 h, read-out: Tissue DMA concentration, Lung",1000 ng/g
same,concentration at 6 h,"[1]; lung, Oral 100 mg/kg, 6 h, read-out: Tissue DMA concentration, Lung",538 ng/g
same,concentration at 16 h,[1]; [6],188 ng/g
same,Cmax,"[1]; small intestine, read-out: Cmax, Small Intestine",106000 ng/g
same,half-life,"[1]; small intestine, read-out: Half life, Small Intestine (converted)",114 min
same,Tmax,"[1]; small intestine, read-out: Tmax, Small Intestine",2 h
same,concentration at 6 h,"[1]; spleen, intravenous, 50 mg/kg i.v., read-out: Concentration achieved in spleen",12100 ng/g
same,concentration at 1 h,"[1]; spleen, iv, i.v. 50 mg/kg, 1 h, read-out: Tissue DMA concentration, Spleen",6970 ng/g
same,concentration at 2 h,[1]; [7],6450 ng/g
same,concentration at 4 h,"[1]; spleen, iv, i.v. 50 mg/kg, 4 h, read-out: Tissue DMA concentration, Spleen",2090 ng/g
same,concentration at 6 h,"[1]; spleen, iv, i.v. 50 mg/kg, 6 h, read-out: Tissue DMA concentration, Spleen",12100 ng/g
same,concentration at 16 h,[1]; [7],9600 ng/g
same,concentration at 1 h,"[1]; spleen, 50 mg/kg intravenous, read-out: C1 hr, Spleen",6970 ng/g
same,Cmax,"[1]; spleen, read-out: Cmax, Spleen",1310 ng/g
same,half-life,"[1]; spleen, read-out: Half life, Spleen (converted)",252 min
same,Tmax,"[1]; spleen, read-out: Tmax, Spleen",2 h
same,concentration at 1 h,"[1]; spleen, Oral 100 mg/kg, 1 h, read-out: Tissue DMA concentration, Spleen",401 ng/g
same,concentration at 2 h,[1]; [8],1310 ng/g
same,concentration at 4 h,"[1]; spleen, Oral 100 mg/kg, 4 h, read-out: Tissue DMA concentration, Spleen",681 ng/g
same,concentration at 6 h,"[1]; spleen, Oral 100 mg/kg, 6 h, read-out: Tissue DMA concentration, Spleen",558 ng/g
same,concentration at 16 h,[1]; [8],254 ng/g
same,"Tissue DMA concentration, Intestine","[1]; i.v. 50 mg/kg, 1 h",1260000 ng/g of tissue
same,Tissue accumulation,[1]; oral and i.v.,preferential accumulation in small intestine
same,Active S-phase cells in intestine,"Balb/c intestinal cells; 50 mg/kg i.v. pretreatment, 8Gy TBI",11%
same,Cell proliferation in intestine tissue,Balb/c intestinal cells; DMA treated vs control,same
